Reference: PubChem BioAssay AID248 (DTP/NCI, 2004)
Several values for one entry are separate records, joined by “and”; a condition that tells them apart may be missing. Identical values can stand only once. Toxic doses and inconclusive results are not listed.

Tested on: L1210 leukemia ip in BDF1 mice, survival T/C
Assay: NCI In Vivo Anticancer Drug Screen. Data for tumor model L1210 Leukemia (intraperitoneal) in B6D2F1 (BDF1) mice
Conditions: endpoint: mean survival time, higher = longer survival
How it was run: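 In this screen, tumor-bearing mice given compound are compared to those given vehicle, and their survival values are reported as a treated-to-control quotient.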

[1] = dose: 6.25 mg/kg/injection, schedule: Q01DX009 (ip), vehicle: other
[2] = dose: 100.0 mg/kg/injection, schedule: Q01DX009 (ip), vehicle: saline with Tween-80
[3] = dose: 200.0 mg/kg/injection, schedule: Q01DX009 (ip), vehicle: saline with Tween-80
[4] = dose: 400.0 mg/kg/injection, schedule: Q01DX009 (ip), vehicle: saline with Tween-80
[5] = dose: 100.0 mg/kg/injection, schedule: Q04DX003 (ip), vehicle: saline with Tween-80
[6] = dose: 200.0 mg/kg/injection, schedule: Q04DX003 (ip), vehicle: saline with Tween-80
[7] = dose: 400.0 mg/kg/injection, schedule: Q04DX003 (ip), vehicle: saline with Tween-80
[8] = dose: 100.0 mg/kg/injection, schedule: Q01DX009 (ip), vehicle: Klucel (hydroxypropylcellulose) (HPC)
[9] = dose: 100.0 mg/kg/injection, schedule: Q04DX003 (ip), vehicle: Klucel (hydroxypropylcellulose) (HPC)
[10] = dose: 200.0 mg/kg/injection, schedule: Q01DX009 (ip), vehicle: Klucel (hydroxypropylcellulose) (HPC)
[11] = dose: 200.0 mg/kg/injection, schedule: Q04DX003 (ip), vehicle: Klucel (hydroxypropylcellulose) (HPC)
[12] = dose: 400.0 mg/kg/injection, schedule: Q01DX009 (ip), vehicle: Klucel (hydroxypropylcellulose) (HPC)
[13] = dose: 400.0 mg/kg/injection, schedule: Q04DX003 (ip), vehicle: Klucel (hydroxypropylcellulose) (HPC)
[14] = dose: 100.0 mg/kg/injection, schedule: Q04DX003 (ip), vehicle: saline
[15] = dose: 200.0 mg/kg/injection, schedule: Q04DX003 (ip), vehicle: saline
[16] = dose: 50.0 mg/kg/injection, schedule: Q01DX009 (ip), vehicle: saline
[17] = dose: 100.0 mg/kg/injection, schedule: Q01DX009 (ip), vehicle: saline
[18] = dose: 50.0 mg/kg/injection, schedule: Q01DX009 (ip), vehicle: Klucel (hydroxypropylcellulose) (HPC)
[19] = dose: 100.0 mg/kg/injection, schedule: Q01DX001 (ip), vehicle: saline
[20] = dose: 200.0 mg/kg/injection, schedule: Q01DX001 (ip), vehicle: saline
[21] = dose: 400.0 mg/kg/injection, schedule: Q01DX001 (ip), vehicle: saline
[22] = dose: 75.0 mg/kg/injection, schedule: Q01DX001 (ip), vehicle: other

SMILES: CCCCOP(=O)(N1CC1CC)N1CC1CC (centres undefined)
- T/C [1]: 99 % of control
- T/C (dose: 6.25 mg/kg/injection, schedule: Q04DX003 (ip), vehicle: other): 95 % of control
- T/C (dose: 12.5 mg/kg/injection, schedule: Q01DX009 (ip), vehicle: other): 95 % of control
- T/C (dose: 12.5 mg/kg/injection, schedule: Q04DX003 (ip), vehicle: other): 97 % of control
- T/C (dose: 25.0 mg/kg/injection, schedule: Q01DX009 (ip), vehicle: other): 92 % of control
- T/C (dose: 25.0 mg/kg/injection, schedule: Q04DX003 (ip), vehicle: other): 92 % of control
- T/C (dose: 50.0 mg/kg/injection, schedule: Q04DX003 (ip), vehicle: other): 94 % of control
- T/C (dose: 100.0 mg/kg/injection, schedule: Q04DX003 (ip), vehicle: other): 95 % of control

SMILES: O=C1c2ccccc2C(=O)c2c3c(cc(NCCNCCO)c21)N(CCO)CCN3
- T/C (dose: 25.0 mg/kg/injection, schedule: Q01DX009 (ip), vehicle: DMSO): 119 % of control
- T/C (dose: 50.0 mg/kg/injection, schedule: Q01DX009 (ip), vehicle: DMSO): 121 % of control
- T/C (dose: 200.0 mg/kg/injection, schedule: Q01DX009 (ip), vehicle: DMSO): 122 % of control

SMILES: CCCCCCCCCCCC[N+](C)(C)Cc1cc(=O)c(O)co1
- T/C (dose: 12.5 mg/kg/injection, schedule: Q04DX002 (ip), vehicle: saline): 94 % of control
- T/C (dose: 25.0 mg/kg/injection, schedule: Q04DX002 (ip), vehicle: saline): 105 % of control
- T/C (dose: 50.0 mg/kg/injection, schedule: Q04DX002 (ip), vehicle: saline): 115 % of control

SMILES: CCCCCOc1nccc(N)n1
- T/C (dose: 25.0 mg/kg/injection, schedule: Q01DX001 (ip), vehicle: saline with Tween-80): 105 % of control
- T/C (dose: 50.0 mg/kg/injection, schedule: Q01DX001 (ip), vehicle: saline with Tween-80): 92 % of control
- T/C (dose: 100.0 mg/kg/injection, schedule: Q01DX001 (ip), vehicle: saline with Tween-80): 95 % of control

SMILES: O=C(O)CS(=O)(=O)c1ccc(Cl)cc1
- T/C [2]: 109 % of control
- T/C [3]: 102 % of control
- T/C [4]: 86 % of control

SMILES: COC(=O)C#CBr
- T/C (dose: 3.13 mg/kg/injection, schedule: Q01DX009 (ip), vehicle: other): 108 % of control
- T/C [1]: 97 % of control

SMILES: O=C(/C=C/c1ccccc1)c1cccc(Br)c1
- T/C [2]: 106 % of control
- T/C [5]: 97 % of control
- T/C [3]: 91 % of control
- T/C [6]: 96 % of control
- T/C [4]: 96 % of control
- T/C [7]: 96 % of control

SMILES: O=C(OC1CC2CC1C1CSCC21)c1ccc([N+](=O)[O-])cc1 (centres undefined)
- T/C [8]: 101 % of control
- T/C [9]: 105 % of control
- T/C [10]: 103 % of control
- T/C [11]: 105 % of control
- T/C [12]: 103 % of control
- T/C [13]: 97 % of control

SMILES: Cc1ccc(C(=O)CC(C(=O)c2ccccc2)c2ccccc2)cc1 (centres undefined)
- T/C (dose: 75.0 mg/kg/injection, schedule: Q01DX009 (ip), vehicle: Klucel (hydroxypropylcellulose) (HPC)): 92 % of control
- T/C [9]: 94 % of control
- T/C (dose: 150.0 mg/kg/injection, schedule: Q01DX009 (ip), vehicle: Klucel (hydroxypropylcellulose) (HPC)): 95 % of control
- T/C [11]: 104 % of control
- T/C (dose: 300.0 mg/kg/injection, schedule: Q01DX009 (ip), vehicle: Klucel (hydroxypropylcellulose) (HPC)): 95 % of control
- T/C [13]: 98 % of control

SMILES: CC(=O)Nc1ccc2c(c1)Cc1cc(NC=O)ccc1-2
- T/C (dose: 50.0 mg/kg/injection, schedule: Q01DX001 (ip), vehicle: carboxymethylcellulose (CMC)): 101 % of control
- T/C (dose: 100.0 mg/kg/injection, schedule: Q01DX001 (ip), vehicle: carboxymethylcellulose (CMC)): 95 % of control
- T/C [2]: 102 % of control
- T/C [14]: 97 % of control
- T/C (dose: 200.0 mg/kg/injection, schedule: Q01DX001 (ip), vehicle: carboxymethylcellulose (CMC)): 101 % of control
- T/C [3]: 95 % of control
- T/C [15]: 93 % of control
- T/C (dose: 400.0 mg/kg/injection, schedule: Q01DX001 (ip), vehicle: carboxymethylcellulose (CMC)): 101 % of control
- T/C [4]: 98 % of control
- T/C (dose: 400.0 mg/kg/injection, schedule: Q04DX003 (ip), vehicle: saline): 95 % of control

SMILES: O=C1OC(c2ccccc2)(C2(c3ccccc3)OC(=O)c3ccccc32)c2ccccc21 (centres undefined)
- T/C (dose: 25.0 mg/kg/injection, schedule: Q04DX003 (ip), vehicle: saline with Tween-80): 97 % of control
- T/C (dose: 50.0 mg/kg/injection, schedule: Q04DX003 (ip), vehicle: saline with Tween-80): 97 % of control
- T/C [5]: 90 % of control

SMILES: COc1ccc(C(SCC(N)C(=O)O)(c2ccccc2)c2ccccc2)cc1 (centres undefined)
- T/C (dose: 7.4 mg/kg/injection, schedule: Q01DX009 (ip), vehicle: saline): 122 % of control
- T/C (dose: 25.0 mg/kg/injection, schedule: Q01DX009 (ip), vehicle: saline): 166 % of control
- T/C [16]: 183 % of control
- T/C [17]: 100 % of control

SMILES: c1ccc2[nH]c(/N=N/c3nc4ccccc4[nH]3)nc2c1
- T/C [8]: 95 % of control
- T/C [9]: 94 % of control
- T/C [10]: 105 % of control
- T/C [11]: 98 % of control
- T/C [12]: 87 % of control
- T/C [13]: 98 % of control

SMILES: Cc1ccc(C(=O)OCc2ccc3c(c2)OCO3)cc1
- T/C (dose: 222.0 mg/kg/injection, schedule: Q01DX Z (ip), vehicle: methylcellulose (MC)): 97 % of control
- T/C (dose: 333.0 mg/kg/injection, schedule: Q01DX Z (ip), vehicle: methylcellulose (MC)): 89 % of control
- T/C (dose: 500.0 mg/kg/injection, schedule: Q01DX Z (ip), vehicle: methylcellulose (MC)): 89 % of control

SMILES: O=Nc1ccc(O)c2ccccc12
- T/C [18]: 100 % of control
- T/C [8]: 100 % of control
- T/C [10]: 95 % of control

SMILES: CN(C)CCC#N
- T/C (dose: 50.0 mg/kg/injection, schedule: Q01DX001 (ip), vehicle: saline): 97 % of control
- T/C [16]: 106 % of control
- T/C [19]: 97 % of control
- T/C [17]: 108 % of control
- T/C [14]: 100 % of control
- T/C [20]: 100 % of control
- T/C (dose: 200.0 mg/kg/injection, schedule: Q01DX009 (ip), vehicle: saline): 112 % of control
- T/C [15]: 100 % of control
- T/C [21]: 97 % of control

SMILES: NCC(O)(c1ccccc1)c1ccccc1
- T/C (dose: 12.5 mg/kg/injection, schedule: Q01DX009 (ip), vehicle: Klucel (hydroxypropylcellulose) (HPC)): 101 % of control
- T/C (dose: 25.0 mg/kg/injection, schedule: Q01DX009 (ip), vehicle: Klucel (hydroxypropylcellulose) (HPC)): 95 % of control
- T/C [18]: 89 % of control
- T/C [22]: 100 % of control

SMILES: C/C(=C\C(C)C)C1(C)C(=O)NC(=O)NC1=O
- T/C [22]: 96 % of control
- T/C (dose: 150.0 mg/kg/injection, schedule: Q01DX001 (ip), vehicle: other): 109 % of control
- T/C (dose: 300.0 mg/kg/injection, schedule: Q01DX001 (ip), vehicle: other): 105 % of control

SMILES: COC(=O)C1(C)COP(=O)(O)OC1 (centres undefined) (tested in a mixture with another compound)
- T/C [19]: 91 % of control and 107 % of control and 100 % of control
- T/C [20]: 94 % of control and 96 % of control and 97 % of control
- T/C [21]: 89 % of control and 105 % of control and 107 % of control

SMILES: O=C1C=CC(=O)N1c1ccc(Cl)cc1Br
- T/C (dose: 5.0 mg/kg/injection, schedule: Q01DX009 (ip), vehicle: saline with Tween-80): 91 % of control
- T/C (dose: 10.0 mg/kg/injection, schedule: Q01DX009 (ip), vehicle: saline with Tween-80): 91 % of control
- T/C (dose: 20.0 mg/kg/injection, schedule: Q01DX009 (ip), vehicle: saline with Tween-80): 91 % of control

SMILES: Cc1ccc2c(=O)n(C)c(=O)n(C)c2n1
- T/C (dose: 100.0 mg/kg/injection, schedule: Q04DX002 (ip), vehicle: Klucel (hydroxypropylcellulose) (HPC)): 106 % of control
- T/C (dose: 200.0 mg/kg/injection, schedule: Q04DX002 (ip), vehicle: Klucel (hydroxypropylcellulose) (HPC)): 106 % of control
- T/C (dose: 400.0 mg/kg/injection, schedule: Q04DX002 (ip), vehicle: Klucel (hydroxypropylcellulose) (HPC)): 106 % of control

SMILES: CC(C)(C)NC(=O)C1C2C=CC(CC2)C1C(=O)NC(C)(C)C (centres undefined)
- T/C [5]: 100 % of control
- T/C [6]: 96 % of control
- T/C [7]: 92 % of control

SMILES: NN=O
- T/C [19]: 97 % of control
- T/C [20]: 101 % of control
